In patent US7449477B2, “7-phenyl-isoquinoline-5-sulfonylamino derivatives as inhibitors of akt (protein kinase B)” (Eli Lilly and Company, priority 2003, dated 2008):
Where a name gives a salt, the structure may show the parent alone.

Target: T1, active human Akt1 (Homo sapiens, UniProt P31749)
T1 construct: Active human recombinant Akt1 (full-length) purified from Sf9 insect cells; purchased Upstate Biotechnology, Inc. 14-276; host or cells: Sf9 insect cells
Assay: Akt1 Phosphorylation Assay (phosphocellulose filter-binding, 33P-Crosstide)
Type: biochemical
Conditions: active human recombinant Akt1 (full-length) 10 nM; 12.5 μM Crosstide; 20 μM ATP; 30 minutes at room temperature
Protocol: Akt1 Phosphorylation Assay
The assay described measures the phosphorylation of Crosstide by active human Akt1 and other Akt isoforms. Crosstide contains a consensus sequence derived from Akt substrates GSK3b and forkhead transcription factors (FKs). The ^33P-labeled Crosstide substrate is captured by phosphocellulose membrane filter plates.
Active human recombinant Akt1 (full-length) purified from Sf9 insect cells is from Upstate Biotechnology, Inc. (Cat. #14-276, 405 μg/ml). Crosstide substrate, NH2-GRPRTSSFAEG-COOH (M.W.1164) is purchased from Multiple Peptide System (Cat. # L59/GR145-153).
Solution (A): 20% DMSO (dimethylsulphoxide) or Compound in 20% DMSO; Solution (B): Assay Buffer Mix: 31.25 μM Crosstide, 37.5 mM MgCl2, 87.5 mM HEPES, pH 7.3, 50 μM ATP γ-^33P-ATP, 0.05 μCi/μl; Solution (C): Akt Kinase Mix: 31.25 mM HEPES, pH 7.3; 1 mM DTT, 25 nM UBI Akt1.
Procedure for Phosphocellulose Filter-Binding Assay
Ten μl of Solution (A) are first mixed with 20 μl Solution (B). The enzymatic reaction is initiated by adding 20 μl Solution (C) to the mixture. (Final concentration or amount in a 50-μl reaction mix: 4% DMSO or various compound concentration in 4% DMSO; 12.5 μM Crosstide; 15 mM MgCl2; 35 mM HEPES, pH7.3; 20 μM ATP; 1 μCi γ-^33P-ATP; 0.4 mM DTT; 10 nM UBI Akt1.) The reactions are performed in 96-well microtiter plates.
After 30 minutes at room temperature, the reaction is terminated by adding 80 μl of 10% H3PO4. An aliquot of 100 μl from each well is transferred to the phosphocellulose filter plate (Millipore MultiScreen, Catalog #MAPHN0B50). After 30 minutes, the reaction mix is filtered with a Millipore manifold following by 3 washes with 0.5% H3PO4. The filter is then vacuum-dried and the plate is fitted onto a Packard carrier. 100 μl/well Microscint20 are added and the contents are counted in a Packard Top Count.

T1 sequence (P31749 whole entry): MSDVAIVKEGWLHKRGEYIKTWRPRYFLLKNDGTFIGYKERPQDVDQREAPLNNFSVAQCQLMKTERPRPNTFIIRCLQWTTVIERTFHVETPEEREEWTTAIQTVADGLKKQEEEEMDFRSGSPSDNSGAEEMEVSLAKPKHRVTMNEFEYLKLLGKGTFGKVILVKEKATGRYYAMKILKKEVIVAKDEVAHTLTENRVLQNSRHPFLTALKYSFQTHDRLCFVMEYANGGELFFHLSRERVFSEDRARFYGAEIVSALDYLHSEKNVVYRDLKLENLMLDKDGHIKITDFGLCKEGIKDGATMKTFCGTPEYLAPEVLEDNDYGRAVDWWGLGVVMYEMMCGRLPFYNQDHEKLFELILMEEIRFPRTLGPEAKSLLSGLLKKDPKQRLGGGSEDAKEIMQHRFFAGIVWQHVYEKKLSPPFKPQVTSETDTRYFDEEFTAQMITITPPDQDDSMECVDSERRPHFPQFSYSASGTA

IC50 [nM]	Compound
≤ 2000	O=S(=O)(NCCNCCCc1ccc(O)cc1)c1cc(-c2ccccc2)cc2cnccc12 [Example 19, 7-Phenyl-isoquinoline-5-sulfonic acid {2-[3-(4-hydroxyphenyl)-propylamino]-ethyl}-amide, dihydrochloride salt]
≤ 2000	COc1ccc(CCCNCCNS(=O)(=O)c2cc(-c3ccc(O)cc3)cc3cnccc23)c(F)c1 [Example 108, 7-(4-Hydroxy-phenyl)-isoquinoline-5-sulfonic acid {2-[3-(2-fluoro-4-methoxy-phenyl)-propylamino]-ethyl}-amide]
≤ 2000	O=[N+]([O-])c1ccc(CCCNCCNS(=O)(=O)c2cc(-c3ccccc3)cc3cnccc23)c(CCO)c1 [Example 58, 7-Phenyl-isoquinoline-5-sulfonic acid {2-[3-(2-(2-hydroxy-ethyl)-4-nitro-phenyl)-propylamino]-ethyl}-amide, dihydrochloride salt]
≤ 2000	O=S(=O)(NCCNCCCc1cccc(O)c1)c1cc(-c2ccccc2)cc2cnccc12 [Example 18, 7-Phenyl-isoquinoline-5-sulfonic acid {2-[3-(3-hydroxyphenyl)-propylamino]-ethyl}-amide, dihydrochloride salt]
≤ 2000	O=S(=O)(NCCNCC(O)C(O)c1ccc(S(=O)(=O)C(F)(F)F)cc1)c1cc(-c2ccccc2)cc2cnccc12 (stereo not shown) [Example 113, 7-Phenyl-isoquinoline-5-sulfonic acid {2-[2,3-dihydroxy-3-(4-trifuoromethanesulfonyl-phenyl)-propylamino]-ethyl}-amide, dihydrochloride salt]
≤ 2000	Nc1ccc(CCCNCCNS(=O)(=O)c2cc(-c3ccccc3)cc3cnccc23)cc1 [Example 72, 7-Phenyl-isoquinoline-5-sulfonic acid [2-(3-(4-aminophenyl)-propylamino)-ethyl]-amide, dihydrochloride salt]
≤ 2000	N#Cc1ccc(CCCNCCNS(=O)(=O)c2cc(-c3ccccc3)cc3cnccc23)cc1O [Example 106, 7-Phenyl-isoquinoline-5-sulfonic acid {2-[3-(4-cyano-3-hydroxy-phenyl)-propylamino]-ethyl}-amide, bis-trifluoroacetate salt]
≤ 2000	O=[N+]([O-])c1ccc(CCCNCCNS(=O)(=O)c2cc(-c3ccccc3)cc3cnccc23)c(-c2ccccc2)c1 [Example 42, 7-Phenyl-isoquinoline-5-sulfonic acid {2-[3-(5-nitro-biphenyl-2-yl)-propylamino]-ethyl}-amide, dihydrochloride salt]
≤ 2000	O=[N+]([O-])c1ccc(CCCNCCNS(=O)(=O)c2cc(-c3ccccc3)cc3cnccc23)cc1 [Example 3, 7-Phenyl-isoquinoline-5-sulfonic acid {2-[3-(4-nitrophenyl)-propylamino]-ethyl}-amide, dihydrochloride salt]
≤ 2000	O=C(Nc1ccc(CCCNCCNS(=O)(=O)c2cc(-c3ccccc3)cc3cnccc23)cc1)C1CC1 [Example 25, 7-Phenyl-isoquinoline-5-sulfonic acid {2-[3-(4-(cyclopropyl-carbonylamino)phenyl)-propylamino]-ethyl}-amide, dihydrochloride salt]
≤ 2000	O=[N+]([O-])c1ccc(CC(O)CNCCNS(=O)(=O)c2cc(-c3ccccc3)cc3cnccc23)cc1 (single isomer, unassigned; isomer 1) [Example 85, 7-Phenyl-isoquinoline-5-sulfonic acid [2-(2-hydroxy-3-(4-nitrophenyl)-propylamino)-ethyl]-amide isomer 1, dihydrochloride salt]
≤ 2000	O=[N+]([O-])c1ccc(CCCNCCNS(=O)(=O)c2cc(-c3cccc(O)c3)cc3cnccc23)cc1 [Example 99, 7-(3-hydroxy-phenyl)-isoquinoline-5-sulfonic acid {2-[3-(4-nitro-phenyl)-propylamino]-ethyl}-amide, dihydrochloride salt]
≤ 2000	O=S(=O)(NCCNCCCc1cccc(O)c1)c1cc(-c2cccc(O)c2)cc2cnccc12 [Example 107, 7-(3-Hydroxy-phenyl)-isoquinoline-5-sulfonic acid {2-[3-(3-hydroxy-phenyl)-propylamino]-ethyl}-amide]
≤ 2000	COC(=O)c1cc([N+](=O)[O-])ccc1CCCNCCNS(=O)(=O)c1cc(-c2ccccc2)cc2cnccc12 [Example 62, 7-Phenyl-isoquinoline-5-sulfonic acid {2-[3-(2-methoxycarbonyl-4-nitrophenyl)-propylamino]-ethyl}-amide, dihydrochloride salt]
≤ 2000	O=[N+]([O-])c1ccc(C(O)C(O)CNCCNS(=O)(=O)c2cc(-c3ccccc3)cc3cnccc23)cc1 (single isomer, unassigned; isomer 1) [Example 88, 7-Phenyl-isoquinoline-5-sulfonic acid [2-(2,3-dihydroxy-3-(4-nitrophenyl)-propylamino)-ethyl]-amide isomer 1, dihydrochloride salt]
≤ 2000	O=S(=O)(NCCNCCCc1cccc(O)c1)c1cc(-c2ccc(O)cc2)cc2cnccc12 [Example 109, 7-(4-Hydroxy-phenyl)-isoquinoline-5-sulfonic acid {2-[3-(3-hydroxy-phenyl)-propylamino]-ethyl}-amide]
≤ 2000	O=S(=O)(NCCNCCCc1ccccc1N1CCNCC1)c1cc(-c2ccccc2)cc2cnccc12 [Example 11, 7-Phenyl-isoquinoline-5-sulfonic acid {2-[3-(2-(piperazin-1-yl-phenyl)-propylamino]-ethyl}-amide, tetrahydrochloride salt]
≤ 2000	N#Cc1ccc(CCCNCCNS(=O)(=O)c2cc(-c3ccccc3)cc3cnccc23)cc1 [Example 33, 7-Phenyl-isoquinoline-5-sulfonic acid {2-[3-(4-cyanophenyl)-propylamino]-ethyl}-amide, dihydrochloride salt]
≤ 2000	N#Cc1ccc(C(O)C(O)CNCCNS(=O)(=O)c2cc(-c3ccccc3)cc3cnccc23)cc1 (stereo not shown) [Example 112, 7-Phenyl-isoquinoline-5-sulfonic acid {2-[3-(4-cyano-phenyl)-2,3-dihydroxy-propylamino]-ethyl}-amide, dihydrochloride salt]
≤ 2000	CCCNS(=O)(=O)c1ccc(CCCNCCNS(=O)(=O)c2cc(-c3ccccc3)cc3cnccc23)cc1 [Example 21, 7-Phenyl-isoquinoline-5-sulfonic acid {2-[3-(4-(N-propylamino-sulfonyl)phenyl)-propylamino]-ethyl}-amide, dihydrochloride salt]
≤ 2000	O=[N+]([O-])c1ccc(C(O)CCNCCNS(=O)(=O)c2cc(-c3ccccc3)cc3cnccc23)cc1 (stereo not shown) [Example 73, 7-Phenyl-isoquinoline-5-sulfonic acid [2-(3-hydroxy-3-(4-nitrophenyl)-propylamino)-ethyl]-amide, dihydrochloride salt]
≤ 2000	O=C(O)c1cc([N+](=O)[O-])ccc1CCCNCCNS(=O)(=O)c1cc(-c2ccccc2)cc2cnccc12 [Example 64, 7-Phenyl-isoquinoline-5-sulfonic acid {2-[3-(2-carboxy-4-nitrophenyl)-propylamino]-ethyl}-amide, dihydrochloride salt]
